# Key:
# Assay type in all cases: functional
# HCT-15 = experiment: Growth inhibition of human HCT15 cells after 48 hrs by sulforhodamine B assay; settings: HCT-15, 48 h
# ACHN = experiment: Growth inhibition of human ACHN cells after 48 hrs by sulforhodamine B assay
# KM12 = experiment: Growth inhibition of human KM12 cells after 48 hrs by sulforhodamine B assay; settings: KM12, 48 h
# HT-29 = experiment: Growth inhibition of human HT-29 cells after 48 hrs by sulforhodamine B assay; settings: HT-29, 48 h
# SK-MEL-5 = experiment: Growth inhibition of human SK-MEL-5 cells after 48 hrs by sulforhodamine B assay; settings: SK-MEL-5, 48 h
# SW-620 = experiment: Growth inhibition of human SW620 cells after 48 hrs by sulforhodamine B assay; settings: SW-620, 48 h
# IGROV-1 = experiment: Growth inhibition of human IGROV1 cells after 48 hrs by sulforhodamine B assay; settings: IGROV-1, 48 h
# UACC-62 = experiment: Growth inhibition of human UACC62 cells after 48 hrs by sulforhodamine B assay; settings: UACC-62, 48 h
# U-251 = experiment: Growth inhibition of human U251 cells after 48 hrs by sulforhodamine B assay; settings: U-251, 48 h
# MDA-MB-468 = experiment: Growth inhibition of human MDA-MB-468 cells after 48 hrs by sulforhodamine B assay; settings: MDA-MB-468, 48 h
# SN12C = experiment: Growth inhibition of human SN12C cells after 48 hrs by sulforhodamine B assay
# T47D = experiment: Growth inhibition of human T47D cells after 48 hrs by sulforhodamine B assay
# M14 = experiment: Growth inhibition of human M14 cells after 48 hrs by sulforhodamine B assay; settings: M14, 48 h
# MOLT-4 = experiment: Growth inhibition of human MOLT4 cells after 48 hrs by sulforhodamine B assay; settings: MOLT-4, 48 h
# MDA-MB-231 = experiment: Growth inhibition of human MDA-MB-231/ATCC cells after 48 hrs by sulforhodamine B assay; settings: MDA-MB-231, 48 h
# HCC 2998 = experiment: Growth inhibition of human HCC2998 cells after 48 hrs by sulforhodamine B assay; settings: HCC 2998, 48 h
# LOX IMVI = experiment: Growth inhibition of human LOXIMVI cells after 48 hrs by sulforhodamine B assay
# COLO 205 = experiment: Growth inhibition of human COLO205 cells after 48 hrs by sulforhodamine B assay; settings: COLO 205, 48 h
# NCI-H226 = experiment: Growth inhibition of human NCI-H226 cells after 48 hrs by sulforhodamine B assay; settings: NCI-H226, 48 h
# SK-MEL-2 = experiment: Growth inhibition of human SK-MEL-2 cells after 48 hrs by sulforhodamine B assay; settings: SK-MEL-2, 48 h
# NCI/ADR-RES = experiment: Growth inhibition of human NCI/ADR-RES cells after 48 hrs by sulforhodamine B assay
# OVCAR-4 = experiment: Growth inhibition of human OVCAR4 cells after 48 hrs by sulforhodamine B assay; settings: OVCAR-4, 48 h
# OVCAR-3 = experiment: Growth inhibition of human OVCAR3 cells after 48 hrs by sulforhodamine B assay; settings: OVCAR-3, 48 h
# 786-0 = experiment: Growth inhibition of human 786-0 cells after 48 hrs by sulforhodamine B assay; settings: 786-0, 48 h
# A498 = experiment: Growth inhibition of human A498 cells after 48 hrs by sulforhodamine B assay; settings: A498, 48 h
# RXF 393 = experiment: Growth inhibition of human RXF393 cells after 48 hrs by sulforhodamine B assay; settings: RXF 393, 48 h
# CAKI-1 = experiment: Growth inhibition of human Caki1 cells after 48 hrs by sulforhodamine B assay; settings: CAKI-1, 48 h
# NCI-H322M = experiment: Growth inhibition of human NCI-H322M cells after 48 hrs by sulforhodamine B assay
# NCI-H522 = experiment: Growth inhibition of human NCI-H522 cells after 48 hrs by sulforhodamine B assay; settings: NCI-H522, 48 h
# TK-10 = experiment: Growth inhibition of human TK10 cells after 48 hrs by sulforhodamine B assay; settings: TK-10, 48 h
# HOP-62 = experiment: Growth inhibition of human HOP62 cells after 48 hrs by sulforhodamine B assay; settings: HOP-62, 48 h
# BT-549 = experiment: Growth inhibition of human BT549 cells after 48 hrs by sulforhodamine B assay; settings: BT-549, 48 h
# [1] = read-out: pLC50 (the source's name) (converted)
structure (smiles),measurement,setting,value
COCOc1cc(/C=C/c2cc(C=O)c3c(c2)C[C@@H]2C(C)(C)[C@H](O)CC[C@@]2(C)O3)cc(OC)c1C/C=C(\C)CCC=C(C)C,GI50,HCT-15,3.31 µM
same,LC50,HCT-15,> 100 µM
same,TGI,HCT-15; read-out: pTGI (converted),51.3 µM
same,GI50,ACHN,7.94 µM
same,LC50,ACHN,> 100 µM
same,TGI,ACHN; read-out: pTGI (converted),> 100 µM
same,GI50,KM12,7.94 µM
same,LC50,KM12,> 100 µM
same,TGI,KM12; read-out: pTGI (converted),75.9 µM
same,GI50,HT-29,4.37 µM
same,LC50 (concentration killing 50% of cells),HT-29,> 100 µM
same,TGI,HT-29; read-out: pTGI (converted),> 100 µM
same,GI50,SK-MEL-5,7.24 µM
same,LC50,SK-MEL-5,58.9 µM
same,TGI,SK-MEL-5; read-out: pTGI (converted),22.9 µM
same,GI50,SW-620,10.2 µM
same,LC50,SW-620,> 100 µM
same,TGI,SW-620; read-out: pTGI (converted),44.7 µM
same,GI50,IGROV-1,9.77 µM
same,LC50,IGROV-1,> 100 µM
same,TGI,IGROV-1; read-out: pTGI (converted),> 100 µM
same,GI50,UACC-62,4.07 µM
same,LC50 (50% lethal concentration),UACC-62,> 100 µM
same,TGI,UACC-62; read-out: pTGI (converted),> 100 µM
same,GI50,U-251,1.74 µM
same,LC50,U-251,> 100 µM
same,TGI,U-251; read-out: pTGI (converted),60.3 µM
same,GI50,MDA-MB-468,4.9 µM
same,LC50,MDA-MB-468,> 100 µM
same,TGI,MDA-MB-468; read-out: pTGI (converted),46.8 µM
same,GI50,SN12C,14.8 µM
same,LC50,SN12C,> 100 µM
same,TGI,SN12C; read-out: pTGI (converted),> 100 µM
same,GI50,T47D,13.5 µM
same,LC50,T47D,> 100 µM
same,TGI,T47D; read-out: pTGI (converted),> 100 µM
same,GI50,M14,11.2 µM
same,LC50,M14,> 100 µM
same,TGI,M14; read-out: pTGI (converted),64.6 µM
same,GI50,MOLT-4,2.82 µM
same,LC50,MOLT-4,> 100 µM
same,TGI,MOLT-4; read-out: pTGI (converted),13.2 µM
same,GI50,MDA-MB-231,3.39 µM
same,CC50,MDA-MB-231; [1],> 100 µM
same,TGI,MDA-MB-231; read-out: pTGI (converted),15.8 µM
same,GI50,HCC 2998,12.3 µM
same,LC50,HCC 2998,> 100 µM
same,TGI,HCC 2998; read-out: pTGI (converted),> 100 µM
same,GI50,LOX IMVI,3.98 µM
same,LC50,LOX IMVI,44.7 µM
same,TGI,LOX IMVI; read-out: pTGI (converted),15.8 µM
same,GI50,COLO 205,3.47 µM
same,LC50,COLO 205,51.3 µM
same,TGI,COLO 205; read-out: pTGI (converted),9.33 µM
same,GI50,NCI-H226,28.2 µM
same,LC50,NCI-H226,> 100 µM
same,TGI,NCI-H226; read-out: pTGI (converted),> 100 µM
same,GI50,SK-MEL-2,12.9 µM
same,LC50,SK-MEL-2,> 100 µM
same,TGI,SK-MEL-2; read-out: pTGI (converted),> 100 µM
same,GI50,NCI/ADR-RES,21.4 µM
same,LC50,NCI/ADR-RES,> 100 µM
same,TGI,NCI/ADR-RES; read-out: pTGI (converted),> 100 µM
same,GI50,OVCAR-4,6.92 µM
same,LC50,OVCAR-4,> 100 µM
same,TGI,OVCAR-4; read-out: pTGI (converted),> 100 µM
same,GI50,OVCAR-3,27.5 µM
same,LC50,OVCAR-3,> 100 µM
same,TGI,OVCAR-3; read-out: pTGI (converted),> 100 µM
same,GI50,786-0,1.02 µM
same,CC50,786-0; [1],> 100 µM
same,TGI,786-0; read-out: pTGI (converted),> 100 µM
same,GI50,A498,7.59 µM
same,LC50,A498,> 100 µM
same,TGI,A498; read-out: pTGI (converted),> 100 µM
same,GI50,RXF 393,0.309 µM
same,LC50 (50% lethal concentration),RXF 393,12.3 µM
same,TGI,RXF 393; read-out: pTGI (converted),1.32 µM
same,GI50,CAKI-1,3.98 µM
same,LC50,CAKI-1,> 100 µM
same,TGI,CAKI-1; read-out: pTGI (converted),> 100 µM
same,GI50,NCI-H322M,89.1 µM
same,LC50,NCI-H322M,> 100 µM
same,TGI,NCI-H322M; read-out: pTGI (converted),> 100 µM
same,GI50,NCI-H522,18.2 µM
same,LC50,NCI-H522,> 100 µM
same,TGI,NCI-H522; read-out: pTGI (converted),> 100 µM
same,GI50,TK-10,25.1 µM
same,LC50,TK-10,> 100 µM
same,TGI,TK-10; read-out: pTGI (converted),> 100 µM
same,GI50,HOP-62,4.9 µM
same,LC50,HOP-62,> 100 µM
same,TGI,HOP-62; read-out: pTGI (converted),> 100 µM
same,GI50,BT-549,3.89 µM
same,LC50,BT-549,> 100 µM
same,TGI,BT-549; read-out: pTGI (converted),63.1 µM
